Data published in patent US8680089B2, “Fused pyridine derivatives” (Xuanzhu Pharma Co., Ltd., priority 2010, dated 2014).
pIC50: −log10 of the molar value. Where two headings read alike, the source gives them in different places.

Columns and labels:
Format in all cases: biochemical
[1] = target: DPP-8 (Homo sapiens, UniProt Q6V1X1); assay: Inhibition to DPP-8 measured by a fluorescence assay (DPPIV-Glo); conditions: 111.9 pM DPP-8, pH 7.5, 10 min preincubation at RT, 30 min reaction, 8 concentrations, assayed twice
Chain of DPP-8 (Q6V1X1 whole entry, species assumed): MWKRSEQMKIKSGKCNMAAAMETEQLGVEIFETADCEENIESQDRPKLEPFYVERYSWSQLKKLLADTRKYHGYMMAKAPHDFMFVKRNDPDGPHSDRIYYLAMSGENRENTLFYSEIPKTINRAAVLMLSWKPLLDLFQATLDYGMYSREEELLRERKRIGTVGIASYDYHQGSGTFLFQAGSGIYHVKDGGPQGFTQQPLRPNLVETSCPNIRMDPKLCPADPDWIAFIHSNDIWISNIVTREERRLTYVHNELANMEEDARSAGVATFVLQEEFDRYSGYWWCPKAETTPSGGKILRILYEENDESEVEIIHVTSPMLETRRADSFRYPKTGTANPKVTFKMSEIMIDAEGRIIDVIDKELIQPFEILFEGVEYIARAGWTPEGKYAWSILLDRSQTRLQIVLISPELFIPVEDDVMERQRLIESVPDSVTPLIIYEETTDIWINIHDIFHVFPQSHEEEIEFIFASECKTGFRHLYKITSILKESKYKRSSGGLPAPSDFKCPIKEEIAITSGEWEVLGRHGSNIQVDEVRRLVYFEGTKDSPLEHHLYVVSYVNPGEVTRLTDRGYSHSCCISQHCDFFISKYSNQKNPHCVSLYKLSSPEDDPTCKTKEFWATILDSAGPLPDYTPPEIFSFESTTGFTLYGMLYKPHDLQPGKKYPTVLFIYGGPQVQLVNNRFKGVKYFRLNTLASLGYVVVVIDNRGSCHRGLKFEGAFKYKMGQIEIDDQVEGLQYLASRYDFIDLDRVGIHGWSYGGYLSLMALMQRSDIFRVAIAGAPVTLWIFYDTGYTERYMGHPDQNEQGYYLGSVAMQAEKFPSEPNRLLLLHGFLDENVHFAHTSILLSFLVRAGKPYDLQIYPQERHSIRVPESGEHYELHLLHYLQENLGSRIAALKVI
Experimental: (§1) The preparation of the reaction solution DPPIV-Glo® buffer should be thawed in advance. The freeze-dried […] should be taken out of the refrigerator in advance and left to room temperature. The DPPIV-Glo® substrate was dissolved in 110 μl water, and mixed thoroughly by votex as a stock solution (the concentration is 10 mmol). The […] was added into an ampoule containing 50 mL DPPIV-Glo™ buffer. Then, 100 μl solution containing DPPIV-Glo™ substrate was mixed with 50 mL DPPIV-Glo™ buffer containing a […] to afford the reaction solution, which needs to be stored in a refrigerator at −20° C.
2. The inhibition to DPP-8 was measured by a fluorescence assay:
(§2) All of the compounds were 10-fold diluted by DMSO before the experiment, and each compound needs to be diluted to 8 concentrations. Before the experiment, the solution containing DPP-8 enzyme was incubated with the mixture of compounds for 10 min at RT. And then, the reaction solution was added and incubated for 30 min. The enzyme was not added to the negative control group. The fluorescence signal was assayed after 30 min. All of the compounds were assayed twice.

[2] = target: DPP-9 (Homo sapiens, UniProt Q86TI2); assay: Inhibition to DPP-9 measured by a fluorescence assay (DPPIV-Glo)
Chain of DPP-9 (Q86TI2 whole entry, species assumed): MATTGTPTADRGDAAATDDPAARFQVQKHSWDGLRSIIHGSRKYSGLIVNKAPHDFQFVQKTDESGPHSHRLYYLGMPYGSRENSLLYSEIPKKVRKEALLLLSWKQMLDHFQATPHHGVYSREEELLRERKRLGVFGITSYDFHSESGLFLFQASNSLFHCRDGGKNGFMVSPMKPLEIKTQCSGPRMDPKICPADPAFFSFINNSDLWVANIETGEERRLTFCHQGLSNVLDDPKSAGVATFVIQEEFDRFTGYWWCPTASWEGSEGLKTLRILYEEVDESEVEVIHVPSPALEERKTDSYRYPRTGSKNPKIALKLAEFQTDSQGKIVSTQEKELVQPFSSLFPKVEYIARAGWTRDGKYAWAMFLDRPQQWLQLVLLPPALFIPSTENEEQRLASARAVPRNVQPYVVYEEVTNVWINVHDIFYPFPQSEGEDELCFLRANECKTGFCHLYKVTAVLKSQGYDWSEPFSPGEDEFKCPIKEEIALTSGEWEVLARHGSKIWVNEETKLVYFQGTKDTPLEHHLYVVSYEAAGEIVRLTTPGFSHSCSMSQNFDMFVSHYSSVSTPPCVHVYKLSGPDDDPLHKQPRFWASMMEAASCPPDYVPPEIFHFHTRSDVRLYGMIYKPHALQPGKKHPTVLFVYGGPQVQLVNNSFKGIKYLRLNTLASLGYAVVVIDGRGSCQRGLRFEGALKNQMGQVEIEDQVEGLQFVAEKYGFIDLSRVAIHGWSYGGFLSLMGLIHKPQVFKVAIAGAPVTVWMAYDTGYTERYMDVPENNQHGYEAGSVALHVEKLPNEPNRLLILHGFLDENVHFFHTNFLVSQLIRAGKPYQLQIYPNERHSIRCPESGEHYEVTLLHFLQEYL
Experimental: as §1
3. The inhibition to DPP-9 was measured by a fluorescence assay:
as §2, with “DPP-9” for “DPP-8”

[3] = target: DPP-IV (Homo sapiens, UniProt P27487); assay: Inhibition to DPP-IV measured by a fluorescence assay (DPPIV-Glo); conditions: 66 pM DPP-4, pH 7.5, 10 min preincubation at RT, 30 min reaction, 8 concentrations, assayed twice
Chain of DPP-IV (P27487 whole entry, species assumed): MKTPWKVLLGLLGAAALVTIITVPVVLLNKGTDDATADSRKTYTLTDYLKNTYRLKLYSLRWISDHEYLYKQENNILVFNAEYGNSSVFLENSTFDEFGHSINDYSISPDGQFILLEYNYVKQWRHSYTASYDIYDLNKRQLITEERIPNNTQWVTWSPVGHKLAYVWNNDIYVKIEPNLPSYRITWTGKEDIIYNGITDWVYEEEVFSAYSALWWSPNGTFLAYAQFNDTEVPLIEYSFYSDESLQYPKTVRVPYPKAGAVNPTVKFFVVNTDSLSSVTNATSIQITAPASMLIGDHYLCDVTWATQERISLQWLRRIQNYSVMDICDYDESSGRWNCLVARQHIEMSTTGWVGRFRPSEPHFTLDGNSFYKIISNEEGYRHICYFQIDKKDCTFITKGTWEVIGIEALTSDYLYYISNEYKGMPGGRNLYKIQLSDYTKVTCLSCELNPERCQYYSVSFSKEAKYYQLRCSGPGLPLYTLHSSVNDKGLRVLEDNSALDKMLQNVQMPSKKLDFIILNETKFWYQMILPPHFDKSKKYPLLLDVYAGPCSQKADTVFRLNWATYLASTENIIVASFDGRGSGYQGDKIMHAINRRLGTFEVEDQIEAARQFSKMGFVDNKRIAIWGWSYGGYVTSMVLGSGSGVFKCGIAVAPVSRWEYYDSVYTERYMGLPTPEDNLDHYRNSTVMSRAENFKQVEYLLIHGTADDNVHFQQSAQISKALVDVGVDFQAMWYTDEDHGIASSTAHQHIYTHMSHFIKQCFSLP
Experimental: as §1
1. The inhibition to DPP-IV was measured by a fluorescence assay:
as §2, with “DPP-IV” for “DPP-8”

[4] = 26 pM DPP-9, pH 7.5, 10 min preincubation at RT, 30 min reaction, 8 concentrations, assayed twice, read-out: IC50 DPP-9

Compound | pIC50 [3] | pIC50 [2, 4] | pIC50 [1] | pIC50 [2]
Cn1c(=O)n(Cc2ccccc2C#N)c2c(N3CCC[C@@H](N)C3)ccnc21 [Compound 1, (R)-2-[[7-(3-aminopiperidin-1-yl)-3-methyl-2-oxo-2,3-dihydro-1H-imidazo[4,5-b]pyridin-1-yl]methyl]benzonitrile] |  |  | < 4.00 | < 4.00
CC(C)n1c(=O)n(Cc2ccccc2C#N)c2c(N3CCC[C@@H](N)C3)ccnc21 [Compound 2, (R)-2-[[7-(3-aminopiperidin-1-yl)-3-isopropyl-2-oxo-2,3-dihydro-1H-imidazo[4,5-b]pyridin-1-yl]methyl]benzonitrile] |  |  | < 4.00 | < 4.00
Cn1c(=O)n(Cc2ccccc2F)c2c(N3CCC[C@@H](N)C3)ccnc21 [Compound 3, (R)-1-(2-fluorobenzyl)-7-(3-aminopiperidin-1-yl)-3-methyl-1H-imidazo[4,5-b]pyridin-2(3H)-one] |  |  | < 4.00 | < 4.00
Cn1c(=O)n(Cc2ccccc2Cl)c2c(N3CCC[C@@H](N)C3)ccnc21 [Compound 5, (R)-1-(2-chlorobenzyl)-7-(3-aminopiperidin-1-yl)-3-methyl-1H-imidazo[4,5-b]pyridine-2(3H)-one] |  |  | < 4.00 | < 4.00
CN[C@@H]1CCCN(c2ccnc3c2n(Cc2ccccc2C#N)c(=O)n3C)C1 [Compound 6, (R)-2-[[3-methyl-7-[3-(methylamino)piperidin-1-yl]-2-oxo-2,3-dihydro-1H-imidazo[4,5-b]pyridin-1-yl]methyl]benzonitrile] |  |  | < 4.00 | < 4.00
N#Cc1ccccc1Cn1c(=O)oc2nccc(N3CCC[C@@H](N)C3)c21 [Compound 11, (R)-2-[[7-(3-aminopiperidin-1-yl)-2-oxo-oxazolo[5,4-b]pyridin-1(2H)-yl]methyl]benzonitrile] |  |  | < 4.00 | < 4.00
Cn1c(=O)n(Cc2ccccc2C#N)c2c(N3CC[C@@H](N)C3)ccnc21 [Compound 12, (R)-2-[[7-(3-aminopyrrolidin-1-yl)-3-methyl-2-oxo-2,3-dihydro-1H-imidazo[4,5-b]pyridin-1-yl]methyl]benzonitrile] |  |  | < 4.00 | < 4.00
Cn1c(=O)n(Cc2ccccc2C#N)c2c(N3CCCCC(N)C3)ccnc21 (centres unmarked) [Compound 15, 2-[[7-(3-aminohomopiperidin-1-yl)-3-methyl-2-oxo-2,3-dihydro-1H-imidazo[4,5-b]pyridin-1-yl]methyl]benzonitrile] |  |  | < 4.00 | < 4.00
Cn1c(=O)n(Cc2ccccc2C#N)c2c(N3CCC[C@@H](N)C3)c3ccccc3nc21 [Compound 18, (R)-2-[[9-(3-aminopiperidin-1-yl)-3-methyl-2-oxo-2,3-dihydro-1H-imidazo[4,5-b]quinolin-1-yl]methyl]benzonitrile] |  |  | < 4.00 | < 4.00
N#Cc1ccccc1Cn1c(=O)[nH]c2nccc(N3CCC[C@@H](N)C3)c21 [Compound 19, (R)-2-[[7-(3-aminopiperidin-1-yl)-2-oxo-2,3-dihydro-1H-imidazo[4,5-b]pyridin-1-yl]methyl]benzonitrile] |  |  | < 4.00 | < 4.00

Continued, in another order:

pIC50 [3] | pIC50 [2, 4] | Compound | pIC50 [1] | pIC50 [2]
6.26 | < 4.00 | Cn1c(=O)n(Cc2cc(F)ccc2F)c2c(N3CCC[C@@H](N)C3)ccnc21 [Compound 4, (R)-1-(2,5-difluorobenzyl)-7-(3-aminopiperidin-1-yl)-3-methyl-1H-imidazo[4,5-b]pyridine-2(3H)-one] | < 4.00 | 
8.05 | < 4.00 | Cc1cc(N2CCC[C@@H](N)C2)c2c(n1)n(C)c(=O)n2Cc1ccccc1C#N [Compound 17, (R)-2-[[7-(3-aminopiperidin-1-yl)-3,5-dimethyl-2-oxo-2,3-dihydro-1H-imidazo[4,5-b]pyridin-1-yl]methyl]benzonitrile] | < 4.00 | 
7.95 | < 4.00 | Cc1cc(N2CC[C@@H](N)C2)c2c(n1)n(C)c(=O)n2Cc1ccccc1C#N [Compound 21, (R)-2-[[7-(3-aminopyrrolidin-1-yl)-3,5-dimethyl-2-oxo-2,3-dihydro-1H-imidazo[4,5-b]pyridin-1-yl]methyl]benzonitrile] | < 4.00 | 
8.00 | < 4.00 | Cn1c(=O)n(Cc2ccccc2C#N)c2c(N3CCC[C@@H](N)C3)cc(Cl)nc21 [Compound 22] | < 4.00 | 
7.64 | < 4.00 | CN(C)c1cc(N2CCC[C@@H](N)C2)c2c(n1)n(C)c(=O)n2Cc1ccccc1C#N [Compound 23, (R)-2-[[7-(3-aminopiperidin-1-yl)-5-(dimethylamino)-3-methyl-2-oxo-2,3-dihydro-1H-imidazo[4,5-b]pyridin-1-yl]methyl]benzonitrile] | < 4.00 | 
7.71 | < 4.00 | CCc1cc(N2CCC[C@@H](N)C2)c2c(n1)n(C)c(=O)n2Cc1ccccc1C#N [Compound 25, (R)-2-[[7-(3-aminopiperidin-1-yl)-5-ethyl-3-methyl-2-oxo-2,3-dihydro-1H-imidazo[4,5-b]pyridin-1-yl]methyl]benzonitrile] | < 4.00 | 
7.24 | < 4.00 | CCn1c(=O)n(Cc2ccccc2C#N)c2c(N3CCC[C@@H](N)C3)cc(C)nc21 [Compound 26, (R)-2-[[7-(3-aminopiperidin-1-yl)-3-ethyl-5-methyl-2-oxo-2,3-dihydro-1H-imidazo[4,5-b]pyridin-1-yl]methyl]benzonitrile] | < 4.00 | 
7.87 | < 4.00 | Cn1c(=O)n(Cc2ccccc2C#N)c2c(N3CCC[C@@H](N)C3)cc(CO)nc21 [Compound 29, (R)-2-[[7-(3-aminopiperidin-1-yl)-3-methyl-5-hydroxymethyl-2-oxo-2,3-dihydro-1H-imidazo[4,5-b]pyridin-1-yl]methyl]benzonitrile] | < 4.00 | 
8.10 | < 4.00 | Cn1c(=O)n(Cc2ccccc2C#N)c2c(N3CCC[C@@H](N)C3)cc(C(=O)O)nc21 [Compound 30, (R)-7-(3-aminopiperidin-1-yl)-1-(2-cyanobenzyl)-3-methyl-2-oxo-2,3-dihydro-1H-imidazo[4,5-b]pyridine-5-formylic acid] | < 4.00 | 
6.37 | < 4.00 | Cc1cc(N2CCC[C@@H](NCc3ccccc3C#N)C2)c2c(n1)n(C)c(=O)n2Cc1ccccc1C#N [Compound 31, (R)-7-[3-(2-cyanobenzyl)aminopiperidin-1-yl]-1-(2-cyanobenzyl)-3,5-dimethyl-2-oxo-2,3-dihydro-1H-imidazo[4,5-b]pyridine] | < 4.00 | 
